# Data published in patent US11304944B2, “MetAP2 inhibitors and methods of treating obesity” (SynDevRx, Inc., priority 2013, dated 2022).
# Legend:
# [1] = tested on: DIO C57Bl/6 mice; assay: In vivo testing DIO mice schedule-dose response: weight, food intake, ipGTT, HOMA-ir data
# Description: Animals were dosed according to the schedule in Table 17 below.
# Compound dosing occurred between 9 and 10 am on the day of dosing. Groups 6 and 7 received a total of 17 doses. The q4d groups (1, 2, 3, 4, 8, 9) received a total of 9 doses. The q8d group (5) received a total of 5 drug doses. Body weight and food intake were measured every other day. Blood glucose was measured on Day −7, Day 0, Day 7, Day 14, Day 21 and Day 28 at 9:00 am in fed state (BG measured before dose on dosing days). BG was measured by glucometer. An intraperitoneal glucose tolerance test (ipGTT, 6 h fasting) was performed.
# The study was terminated on day 34. Liver and epididymal white adipose tissues (eWAT) were harvested, weighed and stored at −80° C. Sera was collected to determine: AST, ALT, ALP, CK, BUN, creatinine, calcium, potassium, sodium, chloride, total protein, albumin, total bilirubin, glucose, triglyceride and cholesterol. Insulin samples were measured using a commercial kit.
# [2] = tested on: DIO C57Bl6 mice; assay: Efficacy of various compounds in DIO mouse model (body weight versus time); type: in vivo; details: for BW change vs. vehicle: day 26
# Description: On study day 1 animals were randomized into groups so that the average weight of the mice in each group was 47 g. The mice were treated with either phosphate buffered saline (vehicle), or compounds as listed in Table 19 dissolved in vehicle (dorsal, subcutaneous administration).
# [3] = tested on: DIO Levin rats; assay: Oral Glucose Tolerance Test (OGTT) Day 48 and HOMA-ir in DIO Levin rats; type: in vivo; details: for Blood Glucose, Time 15 / Blood Glucose, Time 30 / Blood Glucose, Time 60 / Blood Glucose, Time 90 / Blood Glucose, Time 120: OGTT; for BW: at OGTT;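 on Blood Glucose pre-OGTT: blood glucose in mg/dL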;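 on Blood Glucose, Time 120: blood glucose in mg/dL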;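 on Blood Glucose, Time 15: blood glucose in mg/dL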;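 on Blood Glucose, Time 30: blood glucose in mg/dL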;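 on Blood Glucose, Time 60: blood glucose in mg/dL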;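 on Blood Glucose, Time 90: blood glucose in mg/dL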
# Description: Animals were weighed every other day. Food consumption was measured weekly. On an approximately weekly basis throughout the study, blood samples were taken for assessment of serum chemistries including glucose and insulin. On Day 48 all rats underwent a 4 hour fasted Oral Glucose Tolerance Test (OGTT). Animals were dosed orally (per os, PO) at 8 mL/kg 25% glucose (2 g/kg). On day 68, gross pathology was performed to determine body composition.
# [4] = tested on: DIO C57Bl6 mice; assay: In vivo testing DIO C57Bl6 mice: weight changes, food consumption, body composition (Compound 16 vs TNP-470); details: for Body Weight Day 33: sc; for Total fat as a percentage of BW / B.W. / Epididymal Fat / Inguinal Fat / Liver / Retroperitoneal Fat / Total Fat: Day 33
# Description: C57Bl6 male mice (N=6) thirteen weeks old with an average of weight of 34 g were ad libitum fed TD.06414 a high fat diet composed of 60% Kcal from fat (Harlan diet). On study day 1 animals were randomized into groups so that the average weight of each group was 33.9 g. […] Animals were weighed every other day. Food consumption was measured weekly. On day 33 gross pathology was performed to determine body composition.
# [5] = 0.6 mg/kd (so in the source) q4d sc
# [6] = 03 mg/kg (so in the source) q4d sc
substance,measurement,setting,value
poly[HPMA-co-MA-GFLG-N-(trans-4-aminocyclohexyl)carbamoylfumagillol] [Compound 16],"Glucose, ipGTT 0 min",[1]; 2 mg/kg q4d,182.8 mg/dL
same,"Glucose, ipGTT 15 min",[1]; 2 mg/kg q4d,488.6 mg/dL
same,"Insulin, ipGTT 0 min",[1]; 2 mg/kg q4d,104.6 uU/ml
same,"Insulin, ipGTT 15 min",[1]; 2 mg/kg q4d,133.4 uU/ml
same,"Glucose, ipGTT 0 min",[1]; 6 mg/kg q4d,179.8 mg/dL
same,"Glucose, ipGTT 15 min",[1]; 6 mg/kg q4d,557.3 mg/dL
same,"Insulin, ipGTT 0 min",[1]; 6 mg/kg q4d,53.2 uU/ml
same,"Insulin, ipGTT 15 min",[1]; 6 mg/kg q4d,64.3 uU/ml
same,"Glucose, ipGTT 0 min",[1]; 12 mg/kg Q8D,204.0 mg/dL
same,"Glucose, ipGTT 15 min",[1]; 12 mg/kg Q8D,553.1 mg/dL
same,"Insulin, ipGTT 0 min",[1]; 12 mg/kg Q8D,75.9 uU/ml
same,"Insulin, ipGTT 15 min",[1]; 12 mg/kg Q8D,96.0 uU/ml
same,fasting insulin,"[1]; all Compound 16 groups, FIG. 22",fasting insulin was also reduced
same,"Group Avg. BW, Study Day 1",[2]; 2 mg/kg q4d sc,47.0 g
same,"Group Avg. BW, Study Day 7",[2]; 2 mg/kg q4d sc,43.4 g
same,"Group Avg. BW, Study Day 15",[2]; 2 mg/kg q4d sc,43.2 g
same,"Group Avg. BW, Study Day 21",[2]; 2 mg/kg q4d sc,42.0 g
same,"Group Avg. BW, Study Day 26",[2]; 2 mg/kg q4d sc,41.7 g
same,BW change vs. vehicle,[2]; 2 mg/kg q4d sc,−9.6%
same,"Group Avg. BW, Study Day 1",[2]; 12 mg/kg q8d sc,47.0 g
same,"Group Avg. BW, Study Day 7",[2]; 12 mg/kg q8d sc,41.3 g
same,"Group Avg. BW, Study Day 15",[2]; 12 mg/kg q8d sc,38.3 g
same,"Group Avg. BW, Study Day 21",[2]; 12 mg/kg q8d sc,36.2 g
same,"Group Avg. BW, Study Day 26",[2]; 12 mg/kg q8d sc,38.0 g
same,BW change vs. vehicle,[2]; 12 mg/kg q8d sc,−17.5%
same,HOMA-ir (Insulin Sensitivity) 15 min,[3]; 0.3 mg/kg q4d sc,40.1
same,HOMA-ir (Insulin Sensitivity) 30 min,[3]; 0.3 mg/kg q4d sc,10.8
same,HOMA-ir (Insulin Sensitivity) Pre-dose,[3]; 0.3 mg/kg q4d sc,14.6
same,Blood Glucose pre-OGTT,[3]; [5],121 mg/dL
same,"Blood Glucose, Time 15",[3]; [5],150 mg/dL
same,"Blood Glucose, Time 30",[3]; [5],148 mg/dL
same,"Blood Glucose, Time 60",[3]; [5],149 mg/dL
same,"Blood Glucose, Time 90",[3]; [5],143 mg/dL
same,"Blood Glucose, Time 120",[3]; [5],150 mg/dL
same,BW,[3]; [5],662 g
same,HOMA-ir (Insulin Sensitivity) 15 min,[3]; 1 mg/kg q4d sc,50.1
same,HOMA-ir (Insulin Sensitivity) 30 min,[3]; 1 mg/kg q4d sc,18.1
same,HOMA-ir (Insulin Sensitivity) Pre-dose,[3]; 1 mg/kg q4d sc,16.4
same,Blood Glucose pre-OGTT,[3]; [6],121 mg/dL
same,"Blood Glucose, Time 15",[3]; [6],156 mg/dL
same,"Blood Glucose, Time 30",[3]; [6],145 mg/dL
same,"Blood Glucose, Time 60",[3]; [6],157 mg/dL
same,"Blood Glucose, Time 90",[3]; [6],149 mg/dL
same,"Blood Glucose, Time 120",[3]; [6],147 mg/dL
same,BW,[3]; [6],697 g
same,Blood Glucose pre-OGTT,[3]; 3 mg/kg q4d sc,120 mg/dL
same,HOMA-ir (Insulin Sensitivity) 15 min,[3]; 3 mg/kg q4d sc,13.7
same,HOMA-ir (Insulin Sensitivity) 30 min,[3]; 3 mg/kg q4d sc,4.6
same,HOMA-ir (Insulin Sensitivity) Pre-dose,[3]; 3 mg/kg q4d sc,9.2
same,"Blood Glucose, Time 15",[3]; 3 mg/kg q4d sc,157 mg/dL
same,"Blood Glucose, Time 30",[3]; 3 mg/kg q4d sc,144 mg/dL
same,"Blood Glucose, Time 60",[3]; 3 mg/kg q4d sc,140 mg/dL
same,"Blood Glucose, Time 90",[3]; 3 mg/kg q4d sc,127 mg/dL
same,"Blood Glucose, Time 120",[3]; 3 mg/kg q4d sc,129 mg/dL
same,BW,[3]; 3 mg/kg q4d sc,582 g
same,Blood Glucose pre-OGTT,"[3]; 6 mg, q7d sc",128 mg/dL
same,HOMA-ir (Insulin Sensitivity) 15 min,"[3]; 6 mg, q7d sc",37.2
same,HOMA-ir (Insulin Sensitivity) 30 min,"[3]; 6 mg, q7d sc",3.5
same,HOMA-ir (Insulin Sensitivity) Pre-dose,"[3]; 6 mg, q7d sc",12.0
same,"Blood Glucose, Time 15","[3]; 6 mg, q7d sc",161 mg/dL
same,"Blood Glucose, Time 30","[3]; 6 mg, q7d sc",141 mg/dL
same,"Blood Glucose, Time 60","[3]; 6 mg, q7d sc",145 mg/dL
same,"Blood Glucose, Time 90","[3]; 6 mg, q7d sc",145 mg/dL
same,"Blood Glucose, Time 120","[3]; 6 mg, q7d sc",138 mg/dL
same,BW,"[3]; 6 mg, q7d sc",604 g
same,Body Weight Day 33,"[4]; 0.5 mg/kg/day, qod",30.4 g
same,Total fat as a percentage of BW,[4]; 1 mg/kg qod,8.2%
same,Body Weight Day 33,"[4]; 1.5 mg/kg/day, q4d",27.4 g
same,B.W.,[4]; 6 mg/kg q4d,27.4 grams
same,Epididymal Fat,[4]; 6 mg/kg q4d,0.78 grams
same,Inguinal Fat,[4]; 6 mg/kg q4d,0.53 grams
same,Liver,[4]; 6 mg/kg q4d,1.17 grams
same,Retroperitoneal Fat,[4]; 6 mg/kg q4d,0.23 grams
same,Total Fat,[4]; 6 mg/kg q4d,1.55 grams
same,Total fat as a percentage of BW,[4]; 6 mg/kg q4d,5.6%
same,degree of weight loss compared with TNP-470,[4]; FIG. 1,superior to TNP-470 in the degree of weight loss
same,food consumption compared with TNP-470,[4]; FIG. 2,causes a greater reduction in food consumption than TNP-470
same,decrease in weight,[4]; q4d dosing regimen (FIG. 1),19%
same,B.W.,[4]; qod (Cmpd 16 1 mg/kg qod),30.4 grams
same,Epididymal Fat,[4]; qod (Cmpd 16 1 mg/kg qod),1.18 grams
same,Inguinal Fat,[4]; qod (Cmpd 16 1 mg/kg qod),0.92 grams
same,Liver,[4]; qod (Cmpd 16 1 mg/kg qod),1.10 grams
same,Retroperitoneal Fat,[4]; qod (Cmpd 16 1 mg/kg qod),0.42 grams
same,Total Fat,[4]; qod (Cmpd 16 1 mg/kg qod),2.52 grams
